Results on 7 compounds are retold here after patent US4322339A, “Pharmacologically active peptides” (Eli Lilly and Company, priority 1980, dated 1982).

The test system of one experiment is mouse (Cox Standard). Nature of the experiment: mouse hot plate test (mouse jump). The class given is in vivo. To be noted: subcutaneous injection, hot plate 52° C., 15 minutes after administration.
In the next experiment the target is T1, enkephalin (δ) receptor (Mus musculus, UniProt P32300).
T1 construct: from tissue; host or cells: isolated mouse vas deferens (Cox mice, 30-40 g)
T1 sequence (P32300 whole entry): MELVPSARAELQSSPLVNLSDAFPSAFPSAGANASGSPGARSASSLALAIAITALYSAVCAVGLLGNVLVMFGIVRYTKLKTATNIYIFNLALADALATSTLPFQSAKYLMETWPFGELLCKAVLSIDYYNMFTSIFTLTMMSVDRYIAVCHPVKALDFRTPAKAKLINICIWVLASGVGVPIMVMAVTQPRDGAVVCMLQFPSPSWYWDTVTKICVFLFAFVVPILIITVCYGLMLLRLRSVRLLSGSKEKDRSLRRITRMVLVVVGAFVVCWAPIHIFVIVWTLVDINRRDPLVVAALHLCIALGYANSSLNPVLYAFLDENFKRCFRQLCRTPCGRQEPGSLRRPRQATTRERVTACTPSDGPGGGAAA
The experiment is described as follows: mouse vas deferens assay. To be noted: concentration causing depression of 50% of the electrically evoked contraction; field stimulation 0.15 Hz, 1 msec., 40 V; 37° C. The format is tissue-based. As for the experimental part: In the mouse vas deferens test, single mouse vas deferens from mature mice (Cox, 30-40 g.) are suspended in 3 ml. of modified Kreb's solution aerated with 95% O2 -5% CO2 and maintained at 37° C. The twitch induced by field stimulation (0.15 Hz, 1 msec., 40 V) is recorded on a polygraph via an isometric transducer. The test compound is added to the bath in 20 to 30 μl. aliquots. A dose-response curve is constructed by cumulative addition of appropriate amounts of the compound to the bath. Comparison of relative agonist potency at the δ receptor is made on the basis of IC50 values (concentration causing depression of 50% of the electrically evoked contraction).

Regarding `CSCC[C@@H](C(N)=O)N(C)C(=O)[C@H](Cc1cccc(Br)c1)NC(=O)CNC(=O)[C@@H](C)NC(=O)[C@@H](N)Cc1ccc(O)cc1` [Br, L-Tyrosyl-D-alanyl-glycyl-L-m-bromophenylalanyl-L-(N^α -methyl)methioninamide], the “Mouse Jump ED50” value in the experiment on mouse (Cox Standard) (Cox Standard mice) turned out to be 0.36 mg/kg. The IC50 at enkephalin (δ) receptor worked out at 0.49 nM.
On the same counts, the results for `CSCC[C@@H](C(N)=O)N(C)C(=O)[C@H](Cc1cccc(C(F)(F)F)c1)NC(=O)CNC(=O)[C@@H](C)NC(=O)[C@@H](N)Cc1ccc(O)cc1` [CF3, L-Tyrosyl-D-alanyl-glycyl-L-m-trifluoro-methylphenylalanyl-L-(N^α-methyl)methioninamide] are 0.33 mg/kg and 1.78 nM.
Take `CSCC[C@@H](C(N)=O)N(C)C(=O)[C@H](Cc1cccc(C)c1)NC(=O)CNC(=O)[C@@H](C)NC(=O)[C@@H](N)Cc1ccc(O)cc1` [CH3, L-Tyrosyl-D-alanyl-glycyl-L-m-methylphenylalanyl-L-(N^α -methyl)methioninamide]: the “Mouse Jump ED50” value in the experiment on mouse (Cox Standard) (Cox Standard mice) came to 0.33 mg/kg. Moreover, it took 2.73 nM to reach half-maximal inhibition against enkephalin (δ) receptor (IC50).
For `CSCC[C@@H](C(N)=O)N(C)C(=O)[C@H](Cc1cccc(Cl)c1)NC(=O)CNC(=O)[C@@H](C)NC(=O)[C@@H](N)Cc1ccc(O)cc1` [Cl, L-Tyrosyl-D-alanyl-glycyl-L-m-chlorophenylalanyl-L-(N^α -methyl)methioninamide], the “Mouse Jump ED50” value with mouse (Cox Standard) (Cox Standard mice) came to 0.11 mg/kg. At enkephalin (δ) receptor, this compound displayed an IC50 of 0.71 nM.
As to `CSCC[C@@H](C(N)=O)N(C)C(=O)[C@H](Cc1ccccc1)NC(=O)CNC(=O)[C@@H](C)NC(=O)[C@@H](N)Cc1ccc(O)cc1` [H, reference compound], the “Mouse Jump ED50” value in the experiment with mouse (Cox Standard) (Cox Standard mice) is 0.36 mg/kg. At enkephalin (δ) receptor, this compound gave a half-maximal inhibitory concentration (IC50) of 12.2 nM.
Regarding `CSCC[C@@H](C(N)=O)N(C)C(=O)[C@H](Cc1cccc(I)c1)NC(=O)CNC(=O)[C@@H](C)NC(=O)[C@@H](N)Cc1ccc(O)cc1` [I, H-L-Tyr-D-Ala-Gly-L-Phe(I)-L-(N-Me)Met-NH2], inhibition against enkephalin (δ) receptor was half-maximal at 2.1 nM (IC50).
`COc1cccc(C[C@H](NC(=O)CNC(=O)[C@@H](C)NC(=O)[C@@H](N)Cc2ccc(O)cc2)C(=O)N(C)[C@@H](CCSC)C(N)=O)c1` [OMe, L-Tyrosyl-D-alanyl-glycyl-L-m-methoxyphenylalanyl-L-(N^α -methyl)methioninamide]: the “Mouse Jump ED50” value with mouse (Cox Standard) (run using Harlan ND4 mice) turned out to be 0.15 mg/kg. In addition, the IC50 against enkephalin (δ) receptor turned out to be 2.92 nM.
